Results: patent US20260166039A1 (SCHRÖDINGER, INC., priority 2022, published 2026)
Read-outs that look alike come from different tables or passages of the source.

Assays:
[1] = molecular target: T1, Wee1 kinase domain (Homo sapiens, UniProt P30291); experiment: Wee1 Kinase Biochemical Assay (ADP-Glo); settings: 15 uM ATP
T1 construct: Wee1 kinase domain was purchased from Carna (catalog #05-177); purchased Carna 05-177
In short: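 Poly(Lys,Tyr 4:1) phosphorylation by the kinase domain is followed as ADP output (ADP-Glo) after 4 h at 25 °C, with ATP at 15 uM. Values are percent inhibition between vehicle and full-inhibition controls.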

[2] = system: phosphorylation of Cdc2 Y15 (Wee1 substrate) in A427 cells; experiment: Phosphorylated Cdc2 MSD Electrochemiluminescence Assay; assay type: cell-based; settings: Homo sapiens
Description: Phosphorylated Cdc2 MSD Electrochemiluminescence Assay
The effect of Wee1 inhibitors on cellular phosphorylation of the Wee1 substrate Cdc2 was determined using the following protocol:
A total of 40,000 A427 cells in 100 uL culture medium (1640 medium+10% Fetal bovine serum+1% Penicillin-Streptomycin) were plated in 96-well cell culture plates. 3-fold serial dilutions of test compounds were prepared in completed PBS at 25× final concentration. After 20 hours, the plates were removed and 4 μL of each were added to the cells and incubated with shaking for 30 minutes at 37° C., 5% CO2. Each concentration was tested in duplicate. After a total 6 hours incubation, plates were removed and centrifuged for 5 minutes and 100 uL of supernatant from each well was removed. Cells were washed with 200 μL PBS and lysed with 50 μL MSD lysis buffer (Meso Scale Diagnostics) supplied with 1× complete ULTRA cocktail inhibitor (Roche).
To detect phosphorylation of Cdc2 Y15, 30 μL of capture antibody solution (CST catalog #9116S 1:200) was added into each well of the MSD plate (MSD catalog #L15XB-6), sealed and incubated at 4° C. with shaking (450 rpm) overnight. The antibody solution was removed, wells blocked with BSA solution and plates washed three times with PBST, followed by addition of 30 μl of cell lysate per well. After 2 hours of incubation, plates were washed three times with PBST. 30 μL of 1× detection antibody solution (CST catalog #4539S 1:200) was then added to each well and incubated for 1 hour. Plates were washed three times with PBST and 30 μL of 1× secondary antibody solution (MSD, catalog #:R32AB-1, 1:5000) was added to each well and incubated for 1 hour. Plates were washed three times with PBST and 150 μL of 1× Read Buffer T (MSD, catalog #R92TC-1) was added to each well of the MSD plate. The electrochemiluminescence signal was measured on a MESO SECTOR S600 plate reader. The percentage of remaining phosphorylated Cdc2 signal was calculated following the equation below.
[formula] • HC (high control): Cells treated with DMSO • Cpds: Cells treated with test compounds • LC (low control): Cells treated with positive control Wee1 inhibitor

[3] = class symbols, 1 nM Wee1 enzyme, 4 hours at 25° C.
[4] = A-427, class symbols, read-out: A427 pCDC2 MSD IC50

T1 sequence (P30291 299-569 limits assumed): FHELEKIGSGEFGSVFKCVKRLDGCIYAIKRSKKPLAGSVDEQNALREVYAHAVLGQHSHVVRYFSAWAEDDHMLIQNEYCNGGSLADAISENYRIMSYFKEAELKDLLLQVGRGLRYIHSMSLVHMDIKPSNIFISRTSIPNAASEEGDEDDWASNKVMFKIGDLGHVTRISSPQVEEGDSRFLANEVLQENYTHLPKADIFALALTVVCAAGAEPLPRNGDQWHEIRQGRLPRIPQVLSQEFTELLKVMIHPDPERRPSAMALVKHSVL

Structure (SMILES)	IC50 ([1]; Wee1 kinase domain, ADP-Glo)	IC50 ([2]; A-427, pCDC2 MSD)	IC50 [1, 3]	IC50 [2, 4]
CC1(C)C[C@H]2N(c3ccc4c(n3)[C@](C)(N)CC4)c3nc(Nc4ccc(N5CCOCC5)cc4)ncc3[C@@]2(C)CO1 (single isomer, unassigned) [Example 564]			< 10 nM	< 100 nM
CNCc1cccc(N2c3nc(Nc4ccc(N5CCOCC5)cc4)ncc3[C@@]3(C)COC(C)(C)C[C@@H]23)n1 (single isomer, unassigned) [Example 5]	< 10 nM	100 to 1000 nM		
C[C@H]1CN(c2cccc(N3c4nc(Nc5ccc(N6CCN(C)CC6)cc5)ncc4[C@@]4(C)COC(C)(C)C[C@@H]34)n2)C(=O)O1 (single isomer, unassigned) [Example 599]			< 10 nM	100 to 1000 nM
CN1CCN(c2ccc(Nc3ncc4c(n3)N(c3ccn(C(F)F)n3)[C@@H]3CC(C)(C)OC[C@]43C)cc2)CC1 (single isomer, unassigned) [Example 720]			< 10 nM	100 to 1000 nM
CC1(C)C[C@H]2N(c3cccc(N4CCOC4=O)n3)c3nc(Nc4ccc([C@]5(C)CCNC5)cc4)ncc3[C@@]2(C)CO1 [Example 664, 3-(6-((4bR,8aR)-4b,7,7-trimethyl-2-((4-((S)-3-methylpyrrolidin-3-yl)phenyl)amino)-4b,7,8,8a-tetrahydropyrano[3′,4′:4,5]pyrrolo[2,3-d]pyrimidin-9(5H)-yl)pyridin-2-yl)oxazolidin-2-one]			< 10 nM	100 to 1000 nM
CNCc1cccc(N2c3nc(Nc4ccc(N5CCOCC5)cc4)ncc3[C@@]3(C)COCC[C@@H]23)n1 (single isomer, unassigned) [Example 572]			< 10 nM	100 to 1000 nM
CC1(C)C[C@H]2N(c3cccc([C@H]4CCCN4)n3)c3nc(Nc4ccn(C5CCOCC5)c(=O)c4)ncc3[C@@]2(C)CO1 (single isomer, unassigned) [Example 394]	< 10 nM	1000 to 10000 nM		
CN1CCC(n2cnc(Nc3ncc4c(n3)N(c3cccc(N=S(C)(C)=O)n3)[C@@H]3CC(C)(C)OC[C@]43C)c2)CC1 (single isomer, unassigned) [Example 205]	< 10 nM	< 100 nM		
CNCc1cccc(N2c3nc(Nc4ccc(N5[C@@H]6COC[C@H]5C6)cc4)ncc3[C@@]3(C)COC(C)(C)C[C@@H]23)n1 (single isomer, unassigned) [Example 479]			< 10 nM	100 to 1000 nM
CN1CC[C@@H]2CN(c3ccc(Nc4ncc5c(n4)N(c4cccc(N6CCCC6=O)n4)[C@@H]4CC(C)(C)OC[C@]54C)cc3)C[C@@H]21 [Example 686, 1-(6-((4bR,8aR)-4b,7,7-trimethyl-2-((4-((3aR,6aR)-1-methylhexahydropyrrolo[3,4-b]pyrrol-5(1H)-yl)phenyl)amino)-4b,7,8,8a-tetrahydropyrano[3′,4′:4,5]pyrrolo[2,3-d]pyrimidin-9(5H)-yl)pyridin-2-yl)pyrrolidin-2-one]			< 10 nM	100 to 1000 nM
Cc1cccc(N2c3nc(Nc4ccc(N5CCN(C)CC5)cc4)ncc3[C@@]3(C)COC(C)(C)C[C@@H]23)n1 (single isomer, unassigned) [Example 759]			< 10 nM	100 to 1000 nM
C[C@H]1COC(=O)N1c1cccc(N2c3nc(Nc4ccc(O[C@@H]5CCN(C)C5)nc4)ncc3[C@@]3(C)COC(C)(C)C[C@@H]23)n1 (single isomer, unassigned) [Example 283]	< 10 nM	100 to 1000 nM		
CC1(C)C[C@H]2N(c3cccc([C@H]4COCCN4)n3)c3nc(Nc4ccc(N5CCOCC5)cc4)ncc3[C@@]2(C)CO1 [Example 731, (4bR,8aR)-4b,7,7-trimethyl-9-(6-((S)-morpholin-3-yl)pyridin-2-yl)-N-(4-morpholinophenyl)-4b,5,7,8,8a,9-hexahydropyrano[3′,4′:4,5]pyrrolo[2,3-d]pyrimidin-2-amine]			< 10 nM	100 to 1000 nM
C[C@H]1CCC(=O)N1c1cccc(N2c3nc(Nc4ccc(N5CCN(C)CC5)cc4)ncc3[C@@]3(C)COC(C)(C)C[C@@H]23)n1 (single isomer, unassigned) [Example 583]			< 10 nM	100 to 1000 nM
CC(C)n1ccc(N2c3nc(Nc4ccc(N5CCN(C)CC5)cc4)ncc3[C@@]3(C)COC(C)(C)C[C@@H]23)n1 (single isomer, unassigned) [Example 721]			< 10 nM	100 to 1000 nM
C[C@H]1COC(=O)N1c1cccc(N2c3nc(Nc4cnn(C5CCN(C)CC5)c4)ncc3[C@@]3(C)COC(C)(C)C[C@@H]23)n1 (single isomer, unassigned) [Example 243]	< 10 nM	< 100 nM		
CNCc1cccc(N2c3nc(Nc4ccc(N5C[C@@H]6C[C@H]5CO6)cc4)ncc3[C@@]3(C)COC(C)(C)C[C@@H]23)n1 (single isomer, unassigned) [Example 41]	< 10 nM	< 100 nM		
CNCc1cccc(N2c3nc(Nc4ccc([C@@H]5CCC(=O)N5C)nc4)ncc3[C@@]3(C)COC(C)(C)C[C@@H]23)n1 (single isomer, unassigned) [Example 96]	< 10 nM	100 to 1000 nM		

More lines, now with the values ahead:

IC50 ([1]; Wee1 kinase domain, ADP-Glo)	IC50 ([2]; A-427, pCDC2 MSD)	IC50 [1, 3]	IC50 [2, 4]	Structure (SMILES)
< 10 nM	< 100 nM			CN1CC[C@H](Oc2ccc(Nc3ncc4c(n3)N(c3cccc(N=S(C)(C)=O)n3)[C@@H]3CC(C)(C)OC[C@]43C)cc2)C1 (single isomer, unassigned) [Example 157]
< 10 nM	100 to 1000 nM			CC1(C)C[C@H]2N(c3cccc(N=S(C)(C)=O)n3)c3nc(Nc4ccn(C5CC5)c(=O)c4)ncc3[C@@]2(C)CO1 (single isomer, unassigned) [Example 380]
< 10 nM	< 100 nM			CN1CCc2ccc(Nc3ncc4c(n3)N(c3cccc(N=S(C)(C)=O)n3)[C@@H]3CC(C)(C)OC[C@]43C)cc2C1 (single isomer, unassigned) [Example 109]
< 10 nM	100 to 1000 nM			CN1CCC(n2ccc(Nc3ncc4c(n3)N(c3cccc(N=S(C)(C)=O)n3)[C@@H]3CC(C)(C)OC[C@]43C)cc2=O)CC1 [Example 152, 4-(((4bR,8aR)-9-(6-((dimethyl(oxo)-16-sulfaneylidene)amino)pyridin-2-yl)-4b,7,7-trimethyl-4b,5,7,8,8a,9-hexahydropyrano[3′,4′:4,5]pyrrolo[2,3-d]pyrimidin-2-yl)amino)-1-(1-methylpiperidin-4-yl)pyridin-2(1H)-one]
< 10 nM	100 to 1000 nM			CN[C@@H](C)c1cccc(N2c3nc(Nc4ccn(C5CCOCC5)c(=O)c4)ncc3[C@@]3(C)COC(C)(C)C[C@@H]23)n1 (single isomer, unassigned) [Example 390]
< 10 nM	< 100 nM			CC1(C)C[C@@H]2N(c3cccc(N=S(C)(C)=O)n3)c3nc(Nc4ccc([C@]5(C)CCNC5)cc4)ncc3[C@]2(C)CO1 (single isomer, unassigned) [Example 173]
< 10 nM	< 100 nM			CN1CC(c2ccc(Nc3ncc4c(n3)N(c3cccc(N=S(C)(C)=O)n3)[C@@H]3CC(C)(C)OC[C@]43C)cc2Cl)C1 (single isomer, unassigned) [Example 181]
< 10 nM	100 to 1000 nM			Cc1cnc(Nc2ncc3c(n2)N(c2cccc(N=S(C)(C)=O)n2)[C@@H]2CC(C)(C)OC[C@]32C)cn1 (single isomer, unassigned) [Example 371]
< 10 nM	100 to 1000 nM			CNCc1cccc(N2c3nc(Nc4ccn(C5CCOCC5)c(=O)c4)ncc3[C@@]3(C)COC(C)(C)C[C@@H]23)n1 (single isomer, unassigned) [Example 386]
		< 10 nM	100 to 1000 nM	CC1(C)C[C@H]2N(c3cccc(N=S(C)(C)=O)n3)c3nc(Nc4cnn(C(F)F)c4)ncc3[C@@]2(C)CO1 (single isomer, unassigned) [Example 487]
		< 10 nM	1000 to 10000 nM	CC1(C)C[C@H]2N(c3cccc(N=S(C)(C)=O)n3)c3nc(Nc4ccnnc4)ncc3[C@@]2(C)CO1 (single isomer, unassigned) [Example 799]
		< 10 nM	100 to 1000 nM	CN1CCC(c2cncc(Nc3ncc4c(n3)N(c3cccc(N=S(C)(C)=O)n3)[C@@H]3CC(C)(C)OC[C@]43C)c2)CC1 (single isomer, unassigned) [Example 485]
< 10 nM	100 to 1000 nM			CN1CC(n2cc(Nc3ncc4c(n3)N(c3cccc(N=S(C)(C)=O)n3)[C@@H]3CC(C)(C)OC[C@]43C)cn2)C1 (single isomer, unassigned) [Example 207]
